# Experimental data reported in patent US12653799B2, “Compositions and methods for treating Alzheimer's disease” (ELEANORE BENNETT CHARITABLE TRUST #2, priority 2021, dated 2026).
# “Also recorded” adds a separate entry of the source.
# What was measured:
# [1] = biological target: T1, PDK-Akt activation sequence (recombinant PDK-1 and Akt-1) (Homo sapiens, UniProt O15530); test: In vitro drug screen of PS48-family compounds: PDK-1/Akt-1 activation sequence inhibited by Aβ42 ADDL oligomers (western readout); type: biochemical; conditions: for potency relative to PS48: based on Table 1 data; for GSK peptide and Akt T308 phosphorylations, Westerns of in vitro reaction mixture (FIG. 6A): compared to PS48; for fraction of control activity: compound 10 μM
# T1 construct: purchased Amsbio
# T1 sequence (O15530 1-556): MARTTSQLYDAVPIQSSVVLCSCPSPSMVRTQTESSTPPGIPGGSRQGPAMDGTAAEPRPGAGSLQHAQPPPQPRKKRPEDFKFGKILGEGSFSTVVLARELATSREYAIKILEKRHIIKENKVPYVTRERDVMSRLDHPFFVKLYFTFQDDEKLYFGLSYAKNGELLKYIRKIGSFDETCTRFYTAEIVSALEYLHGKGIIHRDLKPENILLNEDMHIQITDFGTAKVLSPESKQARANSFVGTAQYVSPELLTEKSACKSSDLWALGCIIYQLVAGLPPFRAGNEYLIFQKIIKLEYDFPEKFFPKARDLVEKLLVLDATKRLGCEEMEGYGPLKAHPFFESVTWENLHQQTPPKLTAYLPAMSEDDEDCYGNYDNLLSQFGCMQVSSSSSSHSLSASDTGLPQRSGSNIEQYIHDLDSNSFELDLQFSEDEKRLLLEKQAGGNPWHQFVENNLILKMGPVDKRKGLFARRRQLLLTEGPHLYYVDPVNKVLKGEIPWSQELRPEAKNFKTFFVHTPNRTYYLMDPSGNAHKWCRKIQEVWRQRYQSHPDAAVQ
# Protocol: Incubation proceeded for 15 min. GSK-tide (Cell Signaling) was then added and the reaction allowed to continue for 20 min more before termination in sample buffer and fractionation on SDS gel. […] The in vitro results were validated using a cell culture-based assay, as above. […] Compound was added for 12 hrs. The cells were stimulated with insulin before harvest.
# Where quantified, experiments were carried out in triplicate unless otherwise stated. Mean, standard errors and significance levels using Student's t-test were computed in Excel or Prism. […] Western signal intensities were all quantified by densitometry. […] Therefore, where both endpoints were evaluated, normalized values were both included in the quantification as indicated.
# Drug screening experiments were performed using a focused library of novel compounds that were synthesized using PS48 as the starting scaffold. Two generations were created based on structure-activity relations (SAR) in an attempt to optimize performance.
# [2] = system: Akt phosphorylation in Aβ42-expressing SH-SY5Y cells; test: Akt activation in Aβ42-expressing cells (adenovirus/doxycycline, insulin-stimulated); type: cell-based; conditions: SH-SY5Y; for Phospho-Akt levels (T308 and S473 pooled) in cell-based model of Aβ toxicity, verification of analogs: compound 1 μM, insulin 40 nM last 20 minutes
# Protocol: Adv TetOn and TRE-Aβ42 viruses were described previously (Magrane et al., 2005). […] Insulin (10 or 40 nM) was added in the last 20-30 min before harvest. […] Cell extracts were prepared in lysis buffer [20 mM Tris-HCl (pH 7.5), 150 mM NaCl, 1 mM EDTA, 1 mM Na3VO4, 1% NP-40, 10% Glycerol, 1 mM Na4P2O7, 1 μg/ml Leupeptin, 1 μg/ml Pepstatin A, 1 μg/ml Aprotinin, 0.1 mM phenylmethylsulfonyl fluoride, and protease inhibitor cocktail (Roche)] and were stored at −80° C. until use.
# Whole-cell extracts were used directly for western blot analysis (20˜30 μg). Extracts from cultured cells prepared in lysis buffer, were diluted into Laemmli sample buffer, heated (95° C., 10 min), cleared by centrifugation, separated on SDS-PAGE and transferred to PVDF membrane (Immobilon-P; Millipore). Membranes were blocked in TBS containing 0.3% Tween-20 and 5% (wt/vol) non-fat dry milk. After incubation with primary antibodies (18 hr at 4° C. in buffer containing 5% bovine serum albumin (BSA) and 0.05% NaN3), blots were washed and incubated in horseradish peroxidase (HRP)-conjugated secondary antibodies (1:2000 dilution; Cell Signaling). Signals were detected using ECL reagents and quantified using a Kodak Image Station 4000R.
# […]. […] […]. […] […].
# N2a neural cultures = test: WST assay toxicity in N2a neural cultures; type: cell-based; conditions: result not shown
# Source text: . […]. Examples of in vitro assay performance are shown in FIG. 6A and FIG. 6B for compound 508-1-25 (generation 1) and compound 508-1-68 (generation 2). […] The new “hit” compounds also had no direct or indirect effects on potential downstream off-targets such as mTOR (protein levels and phosphorylation status, results not shown). […]
# [3] = system: LTP in rat prefrontal cortical slices; test: Long term potentiation (LTP) in acute prefrontal cortical slices perfused with Aβ42 oligomers; type: cell-based; conditions: Aβ42 ADDLs 0.5 μM; PS48 10 μM, at the 1-hour mark after Aβ42 application
# Protocol: FIG. 3A. […] LTP was measured as % baseline excitatory postsynaptic potential (EPSP) amplitudes. […] Washout restored LTP (4).
# Minor modifications were made to previous published procedures (Marshall et al., 2017; Molina-Luna et al., 2009). Deeply anesthetized rats (pentobarbital, 50 mg/kg) were decapitated, their brains quickly removed and immersed in cold (5-7° C.), oxygenated (95% O2/5% CO2) artificial cerebrospinal fluid (ACSF) containing: 126 mM NaCl, 3 mM KCl, 1.25 mM NaH2PO4, 1 mM MgSO4, 2 mM CaCl2, 26 mM NaHCO3, 10 mM dextrose. […] Control treatment was DMSO in ACSF (artificial cerebrospinal fluid, 20 μM bicuculline). Extracellular postsynaptic field potentials were recorded using an AxoClamp2B amplifier (Axon instruments) and EX1 differential amplifier (Dagan), and digitized at 10 kHz. Data was acquired using Igor Pro (Wave Metrics) and Neuromatic (neuromatic.thinkrandom.com). The stimulus intensity eliciting 50% of the maximum amplitude (˜32 μA) was used for all measurements before and after LTP induction. Baseline amplitudes were recorded for 20-30 minutes using single field stimuli applied every 30 sec to layer IV-V using concentric bipolar electrodes. Following a stable baseline period, LTP was induced by two sets of high-frequency stimulation (HFS) at 100 Hz, 60 μA (twice stimulus intensity), for 1 sec, 20 sec apart. Extracellular postsynaptic field potentials were measured from layer II-III using glass micropipettes filled with 0.9% NaCl. The amplitude rather than the slope of evoked FPs was used as a measure of the population excitatory synaptic response because in the neocortex the initial slope was contaminated by antidromic stimulation. LTP values were expressed as percentage of mean baseline EPSP±SEM. Paired two-tailed t-tests were used for statistical analysis.
# LTP was measured as % baseline excitatory postsynaptic potential (EPSP) amplitudes. […] Washout restored LTP.
# SH-SY5Y cells = test: Cell viability, MTT assay, Aβ42-expressing SH-SY5Y cells; conditions: pretreatment before doxycycline; PS48 10 μM or insulin 100 nM; harvested at 48 hrs
# Protocol: FIG. 2A. Cell viability as measured by MTT assay.
# SH-SY5Y cells were washed twice in warm Dulbecco's phosphate-buffered saline (DPBS) and incubated in 1 ml DMEM containing 0.5 mg (3-[4,5-dimethylthiazol-2-yl]-2,5-diphenyltetrazolium bromide) (MTT or WST; Molecular Probes, Eugene, OR) for 2-3 h at 37° C. and 5% CO2. The medium was aspirated and the cells were washed twice with pre-warmed DPBS. The formazan salts were dissolved in 1 ml pure ethanol before use. Cells were homogenized by repetitive pipetting and centrifuged for 5 min at 4500 rpm, and the supernatant collected. Absorbance was read against an ethanol blank at 590 nm.
# [4] = first generation PS48 analogs, Aβ42 ADDL 10 μM, Aβ 42 alone = 0.62 (.16), control normalized to 1.00
Molecule,potency relative to PS48 [1],"GSK peptide and Akt T308 phosphorylations, Westerns of in vitro reaction mixture (FIG. 6A) [1]","fraction of control activity [1, 4]","Phospho-Akt levels (T308 and S473 pooled) in cell-based model of Aβ toxicity, verification of analogs [2]",other results
O=C(/C=C(/CCc1ccc(Cl)cc1)c1ccccc1)NCCO [508-1-7],increase in potency over PS48,restored activation as well as or better than PS48,0.97 (.10),–,–
O=C(O)CNC(=O)/C=C(/CCc1ccc(Cl)cc1)c1ccccc1 [508-1-25],increase in potency over PS48,restored activation as well as or better than PS48,0.99 (.07),correcting the inhibition of Akt phosphorylation,"Phospho-Akt levels (T308 and S473 pooled) in cell-based model of Aβ toxicity, verification of analogs ([2]; listed as 501-1-25): active; LD50 (N2a neural cultures): 350 µM"
O=C(O)c1cn(Cc2ccc(OC(F)(F)F)cc2)c2ccccc12 [508-1-31],increase in potency over PS48,–,0.95 (.11),–,–
COC(=O)CNC(=O)/C=C(\CCc1ccc(Cl)cc1)c1ccccc1 [508-1-68],increase in potency over PS48,restored activation as well as or better than PS48,–,correcting the inhibition of Akt phosphorylation; also recorded: active,"fraction of control activity ([1]; second generation PS48 analogs, Aβ 42 alone = 0.72 (.05)): 1.02 (.06)"
"O=C(O)/C=C(\CCc1ccc(Cl)cc1)c1ccccc1 [PS47, (E)-5-(4-chlorophenyl)-3-phenylpent-2-enoic acid]",–,–,–,–,LTP (% baseline EPSP amplitude) inhibited by Aβ42 oligomers [3]: no effect
"insulin: Human insulin, recombinant",–,–,–,–,"Akt activation (pT308) in β-amyloid-expressing cells ([2]; PS48 1 μM or insulin 100 nM added 2 hrs before doxycycline, insulin 40 nM 20 min prior to harvest): restored basal Akt activation levels; cell viability (MTT) of amyloid-bearing cells (SH-SY5Y cells): reverted cells to basal condition or better"
